# Experimental data from patent US11975041B2, “Composition comprising CHP (cyclo-his pro) for preventing, improving or treating of bone loss related disease” (NovMetaPharma Co., Ltd., priority 2017, dated 2024).
# Entries after “also recorded” stand apart in the source; their conditions may differ.
# Key:
# [1] = system: ovariectomized animal model; assay: Osteoporosis alleviation in ovariectomized animal model, Micro CT of femur; type: in vivo, SD female mice
# Procedure: To determine the effect of alleviating osteoporosis in an ovariectomized animal model according to administration of CHP, a zinc salt, or a mixture thereof, 20-week-old SD female mice (SLC/Central Experimental Animal Co. Ltd., Seoul, Korea) were purchased and raised under certain conditions (temperature: 22±2° C., relative humidity: 55±10%, light/dark cycle: 12 hours). 7 mice/group were allowed to freely drink water and eat food in a cage, subjected to an adaptation period of 1 week before the experiment, and used in the experiment.
# After 6 weeks of the administration of CHP, a zinc salt, or a mixture thereof, the effect of alleviating osteoporosis in an ovariectomized animal model was analyzed using Micro CT. The bone mineral density of ovariectomized animals was measured by bone CT scanning of the 3 mm range at the front side of a 2 mm femoral growth plate using micro-CT (QuantumFX, Perkin Elmer, Massachusetts, USA). In addition, a bone volume fraction (BV/TV, %) was measured. The measurement results of the bone mineral density of the femur are illustrated in FIG. 1, and the bone volume fraction is illustrated in FIG. 2.
# MC3T3-E1 cells = assay: Alkaline phosphatase (ALP) activity / osteogenic differentiation of MC3T3-E1 osteoblasts; type: cell-based
# Procedure: MC3T3-E1 cells were incubated in MEMα, an ascorbic acid-free medium containing 10% FBS and 1% penicillin/streptomycin, in a 5% CO2 incubator at 37° C. To induce osteogenic differentiation, 10 mM β-glycerophosphate and […] of ascorbic acid was further added to the basal medium composition.
# 500 μl of 1×10^5 MC3T3-E1 cells were seeded into a 24-well plate and cultured for 24 hours until they reached 100% confluency. […] At this time, in the undifferentiated group, which is a negative control for differentiation, a basal medium was used instead of the differentiation medium. In the positive control treated with hPTH1-34, the medium was replaced with a differentiation medium 6 hours after the treatment. While the medium was replaced every 48 hours, each concentration of CHP and hPTH1-34 was treated for a total of 14 days.
# On day 14 of differentiation, the medium was removed, followed by washing once with PBS and fixing in 4% paraformaldehyde (PFA) at room temperature for 5 minutes. 500 μl of a 1-STEP™ NBCT/BCIP solution was added to allow a reaction to occur at room temperature for 1 hour. The reaction product was washed with distilled water, and then dried at room temperature, and the degree of coloring of the cells was observed using a microscope. Subsequently, DMSO was added to each well, followed by shaking, and then absorbance at 525 nm was measured.
smiles,measurement,setting,value
"O=C1N[C@@H](Cc2cnc[nH]2)C(=O)N2CCC[C@@H]12 [CHP, cyclo-hispro]",bone mineral density of the femur,"[1]; 1 mg/L of CHP in drinking water, 6 weeks, micro-CT, compared to the ovariectomized group (FIG. 1)",significant increase
same,bone volume fraction (BV/TV),"[1]; 1 mg/L of CHP in drinking water, 6 weeks, micro-CT, compared with positive control risedronate (FIG. 2)",restored to a level similar to that of the positive control
same,effect on bone mineral density and bone volume fraction relative to zinc salt and zinc salt + CHP mixture groups,[1]; CHP alone vs zinc salt-administered group and combined administration group,significantly stronger
same,bone mineral density of a femur,"[1]; CHP alone, ovariectomized animal model, dose not stated (FIG. 1)",significantly increased
same,bone volume fraction of a femur,"[1]; CHP alone, ovariectomized animal model, dose not stated (FIG. 2)",significantly increased
same,ALP activity (absorbance at 525 nm),"MC3T3-E1 cells; 2 mM CHP, day 14, compared with positive control hPTH1-34 10 nM (FIG. 4)",level similar to that of the positive control; also recorded: same or similar to that of a positive control
same,"osteogenic differentiation (degree of coloring, ALP staining)","MC3T3-E1 cells; 0.5, 1, 2 mM CHP, day 14 of differentiation, compared to negative control (FIG. 3)",remarkably increased degree of coloring; also recorded: osteogenic differentiation and bone modeling were promoted
